# From paper PMC12316308, “Interactions of substrates and phosphinyl containing inhibitors with bacterial and human zinc proteases” (PLOS One, 2025)
# “And” between values parts separate entries of the source, which are not always exact repeats. Equal entries are not always repeated. Where two headings read alike, the source gives them in different places.
# How the values were obtained:
# Format in all cases: biochemical
# [1] = molecular target: T1, Mag-Trypsin activated MMP-9 (MMP-9(MT)) (Homo sapiens, UniProt P14780); assay: Enzyme inhibition kinetics, fluorogenic substrate ES001; settings: rMMP-9 (Mag-trypsin activated); for remaining activity at 100 µM: 100 µM inhibitor
# T1 construct: made in house; host or cells: Sf9 and High Five insect cells
# Method: (§1) The expression of recombinant full length proMMP-9 (rpMMP-9) in Sf9 and High Five insect cells and the purification were performed as previously described. The amount of proMMP-9 was estimated spectrophotometrically at 280 nm using ε280nm = […] [46] for the full length enzyme. Activation of the recombinant proMMP-9 was performed with APMA (auto-activation) and Mag-Trypsin as previously described, while the amount of active MMP-9 was determined by active site titration using galardin, also described previously.
# (§2) Determination of reaction velocities. The substrate ES001 was used for APMA activated MMP-9 (MMP-9(A)), Mag-Trypsin activated MMP-9 (MMP-9(MT)) and MMP-14, while the substrate ES005 was used for ALN, PLN and TLN. The reaction velocities/initial rates (v) were determined at 37°C, at an excitation wavelength of 320 nm and an emission wavelength of 405 nm with a slit width of 10 nm using either a Perkin Elmer LS 50 Luminescence spectrometer and the FL WinLab Software Package (Perkin Elmer) or a Clario Star micro plate reader (CLARIOstar® BMG LABTECH).
# (§3) The phosphinic compounds were dissolved in 100% DMSO to a final concentration of 10 mM. In all assays, a fixed substrate concentration of 4.0 µM was used in a total volume of 100 µL 0.1 M Hepes pH 7.5, 10 mM CaCl2, 0.005% Brij-35 and 1.0% DMSO. Fixed enzyme concentrations were as follows; 0.05 nM MMP-9(A), 0.05 nM MMP-9(MT), 1.0 nM MMP-14, 1.4 nM ALN, 0.5 nM PLN and 0.21 nM TLN. Time dependent inhibitory experiments, with and without 100 μM of phosphinic compounds, were performed as follows: Compounds were either pre-incubated with proteases for 15 and 30 minutes at room temperature before initiating the enzymatic reaction by adding the substrate, or not pre-incubated, meaning the reaction was initiated by adding the protease to the mixture of substrate and compound. Control tests without the compound present were performed under the same conditions. Reactions were monitored for 30 minutes at 37°C.
# (§4) Determination of IC50 and Ki values. […] A fixed substrate concentration and the same enzyme and buffer conditions as described above were used. Enzymes, with or without inhibitors, were either pre-incubated for 30 minutes at room temperature or not pre-incubated, and initial rate assays were performed as described above. Assays were performed using a Clario Star microplate reader. The IC50 values with corresponding s.d. were calculated with GraphPad Prism 5 using equation 1 or 2, depending on the concentration range of the phosphinic compounds.
# (§5) Equation 3 describe the relationship between IC50 and Ki values for substrate competitive inhibitors, considering the fixed substrate concentration and the enzyme’s Km value for the substrate: […]
# [2] = molecular target: T2, APMA activated MMP-9 (MMP-9(A)) (Homo sapiens, UniProt P14780); assay: as above; settings: rMMP-9 (APMA activated); for remaining activity at 100 µM: 100 µM inhibitor
# T2 construct: made in house; host or cells: Sf9 and High Five insect cells
# Method: as §1, §2, §3, §4, §5
# [3] = molecular target: T3, human MT1-MMP/MMP-14 (catalytic domain) (Homo sapiens, UniProt P50281); assay: as above; settings: MMP-14; for remaining activity at 100 µM: 100 µM inhibitor
# T3 construct: human MT1-MMP/MMP-14 (catalytic domain); purchased Calbiochem (San Diego, CA, USA)
# Method: as §2, §3, §4, §5
# pseudolysin (PLN, LasB) = molecular target: T4, pseudolysin (PLN, LasB) (Pseudomonas aeruginosa, UniProt P14756); assay: Enzyme inhibition kinetics, fluorogenic substrate ES005; settings: for remaining activity at 100 µM: 100 µM inhibitor
# T4 construct: purchased Calbiochem (San Diego, CA, USA)
# Method: as §2, §3, §4, §5
# thermolysin (TLN) = molecular target: T5, thermolysin (TLN) (Bacillus thermoproteolyticus, UniProt P00800); assay: as above; settings: for vi/v0 avg (time dependent inhibition, Supplementary Figure S8): Thermolysin, inhibitor 100 µM
# T5 construct: purchased Calbiochem (San Diego, CA, USA)
# Method: as §2, §3, §4, §5
# aureolysin (ALN) = molecular target: T6, aureolysin (ALN) (Staphylococcus aureus, UniProt P81177); assay: as above; settings: for remaining activity at 100 µM: 100 µM inhibitor
# T6 construct: purchased BioCentrum Ltd (Kraków, Poland)
# Method: as §2, §3, §4, §5
# [4] = 0.25 h, 15 min pre incubation, read-out: vi/v0 (single replicate)
# [5] = 0.25 h, 15 min pre incubation, read-out: vi/v0 avg
# [6] = 0.5 h, 30 min pre incubation, read-out: vi/v0 (single replicate)
# [7] = 0.5 h, 30 min pre incubation, read-out: vi/v0 avg
# [8] = no preincubation, read-out: vi/v0 (single replicate)
# [9] = no preincubation, read-out: vi/v0 avg
# [10] = inhibitor 100 μM, average over 0, 15, 30 min preincubation
# [11] = inhibitor 100 μM, preincubation 0 min
# [12] = inhibitor 100 μM, preincubation 15 min
# [13] = inhibitor 100 μM, preincubation 30 min
# T2 sequence (P14780 107-707 limits assumed): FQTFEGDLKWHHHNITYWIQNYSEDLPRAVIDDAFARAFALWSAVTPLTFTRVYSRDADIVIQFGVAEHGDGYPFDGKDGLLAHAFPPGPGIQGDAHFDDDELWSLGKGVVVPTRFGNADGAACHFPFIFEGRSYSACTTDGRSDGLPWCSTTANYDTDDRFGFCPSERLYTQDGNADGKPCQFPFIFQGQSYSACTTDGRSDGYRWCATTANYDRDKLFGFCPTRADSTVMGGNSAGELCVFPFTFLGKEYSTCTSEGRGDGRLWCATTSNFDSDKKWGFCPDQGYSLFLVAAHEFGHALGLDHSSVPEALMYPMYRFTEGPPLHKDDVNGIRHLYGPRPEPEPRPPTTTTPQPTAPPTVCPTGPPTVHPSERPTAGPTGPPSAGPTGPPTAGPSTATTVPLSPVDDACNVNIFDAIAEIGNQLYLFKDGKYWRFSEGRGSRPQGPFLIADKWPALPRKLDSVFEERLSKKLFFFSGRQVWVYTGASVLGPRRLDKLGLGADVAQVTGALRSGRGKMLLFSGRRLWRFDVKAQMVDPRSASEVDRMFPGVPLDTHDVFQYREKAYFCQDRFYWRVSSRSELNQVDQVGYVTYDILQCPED
# T1 sequence (P14780 107-707 limits assumed): as above
# T4 sequence (P14756 198-498): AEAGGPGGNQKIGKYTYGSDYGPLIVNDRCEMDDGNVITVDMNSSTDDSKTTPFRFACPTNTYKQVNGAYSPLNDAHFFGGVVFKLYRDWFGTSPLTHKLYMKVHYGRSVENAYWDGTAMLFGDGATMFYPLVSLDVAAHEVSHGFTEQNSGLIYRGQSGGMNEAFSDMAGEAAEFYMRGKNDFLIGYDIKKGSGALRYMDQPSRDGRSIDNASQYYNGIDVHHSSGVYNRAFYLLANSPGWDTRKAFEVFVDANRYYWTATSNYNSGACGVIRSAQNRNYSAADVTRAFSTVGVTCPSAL
# T6 sequence (P81177 209-509): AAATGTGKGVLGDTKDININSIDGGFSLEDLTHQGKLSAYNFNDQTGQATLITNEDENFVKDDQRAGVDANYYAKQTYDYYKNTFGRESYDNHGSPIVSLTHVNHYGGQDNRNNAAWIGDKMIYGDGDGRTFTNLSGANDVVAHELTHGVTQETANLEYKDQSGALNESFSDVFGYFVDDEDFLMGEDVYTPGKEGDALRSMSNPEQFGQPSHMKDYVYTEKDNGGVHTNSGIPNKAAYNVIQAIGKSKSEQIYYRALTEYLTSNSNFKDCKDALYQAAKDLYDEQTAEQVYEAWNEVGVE
# T5 sequence (P00800 233-548): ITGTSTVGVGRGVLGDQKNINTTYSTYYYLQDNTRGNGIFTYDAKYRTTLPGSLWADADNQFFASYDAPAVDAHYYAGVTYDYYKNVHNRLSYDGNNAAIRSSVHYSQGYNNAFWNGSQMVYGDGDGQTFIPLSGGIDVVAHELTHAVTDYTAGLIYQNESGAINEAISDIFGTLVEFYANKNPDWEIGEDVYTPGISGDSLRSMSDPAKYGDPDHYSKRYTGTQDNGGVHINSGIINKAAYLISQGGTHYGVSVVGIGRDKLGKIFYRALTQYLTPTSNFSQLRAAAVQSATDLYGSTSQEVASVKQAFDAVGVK
smiles,measurement,setting,value
CC(NC(=O)OCc1ccccc1)P(=O)(O)CC(Cc1ccccc1)C(=O)O (centres unmarked) [H4],remaining activity at 100 µM,[1]; [4],93.4%
same,remaining activity at 100 µM,[1]; [5],93.8%
same,remaining activity at 100 µM,[1]; [6],97.8%
same,remaining activity at 100 µM,[1]; [7],96.3%
same,remaining activity at 100 µM,[1]; [8],84.9%
same,remaining activity at 100 µM,[1]; [9],88.4%
same,vi/v0 Av (bar diagram figure 7),[1]; [10],0.9238
same,"vi/v0 (relative enzyme activity with inhibitor), single determinations",[1]; [11],0.8486 and 0.9422 and 0.8609
same,"vi/v0 (relative enzyme activity with inhibitor), single determinations",[1]; [12],0.9336 and 1.006 and 0.8738
same,"vi/v0 (relative enzyme activity with inhibitor), single determinations",[1]; [13],0.9779 and 0.9473
same,remaining activity at 100 µM,[2]; [4],99.2%
same,remaining activity at 100 µM,[2]; [5],95%
same,remaining activity at 100 µM,[2]; [7],100%
same,remaining activity at 100 µM,[2]; [8],94.1%
same,remaining activity at 100 µM,[2]; [9],99.6%
same,vi/v0 Av (bar diagram figure 7),[2]; [10],0.9837
same,"vi/v0 (relative enzyme activity with inhibitor), single determinations",[2]; [11],0.9415 and 1.015 and 1.031
same,"vi/v0 (relative enzyme activity with inhibitor), single determinations",[2]; [12],0.9922 and 0.9231 and 0.9335
same,"vi/v0 (relative enzyme activity with inhibitor), single determinations",[2]; [13],1.197 and 1.012 and 1.109 and 0.6833
same,remaining activity at 100 µM,[3]; [5],101%
same,remaining activity at 100 µM,[3]; [6],101%
same,remaining activity at 100 µM,[3]; [7],102%
same,remaining activity at 100 µM,[3]; [9],106%
same,vi/v0 Av (bar diagram figure 7),"[3]; inhibitor 100 μM, average over preincubation times",1.032
same,"vi/v0 (relative enzyme activity with inhibitor), single determinations",[3]; [11],1.105 and 1.3078 and 1.015 and 0.8074
same,"vi/v0 (relative enzyme activity with inhibitor), single determinations",[3]; [12],0.8428 and 1.155 and 1.039
same,"vi/v0 (relative enzyme activity with inhibitor), single determinations",[3]; [13],1.0115 and 1.061 and 0.9741
same,remaining activity at 100 µM,"pseudolysin (PLN, LasB); 0.25 h, read-out: vi/v0 (single replicate), Pseudolysin, 15 min pre incubation",75.8%
same,remaining activity at 100 µM,"pseudolysin (PLN, LasB); 0.25 h, read-out: vi/v0 avg, Pseudolysin, 15 min pre incubation",75.4%
same,remaining activity at 100 µM,"pseudolysin (PLN, LasB); 0.5 h, read-out: vi/v0 (single replicate), Pseudolysin, 30 min pre incubation",64.2%
same,remaining activity at 100 µM,"pseudolysin (PLN, LasB); 0.5 h, read-out: vi/v0 avg, Pseudolysin, 30 min pre incubation",64%
same,vi/v0 Av (bar diagram figure 7),"pseudolysin (PLN, LasB); Pseudolysin (PLN), inhibitor 100 μM, average over 0, 15, 30 min preincubation",0.7111
same,"vi/v0 (relative enzyme activity with inhibitor), single determinations","pseudolysin (PLN, LasB); Pseudolysin (PLN), inhibitor 100 μM, preincubation 0 min",0.8985 and 0.6806 and 0.6817
same,"vi/v0 (relative enzyme activity with inhibitor), single determinations","pseudolysin (PLN, LasB); Pseudolysin (PLN), inhibitor 100 μM, preincubation 15 min",0.7584 and 0.7504
same,"vi/v0 (relative enzyme activity with inhibitor), single determinations","pseudolysin (PLN, LasB); Pseudolysin (PLN), inhibitor 100 μM, preincubation 30 min",0.6423 and 0.5711 and 0.7059
same,remaining activity at 100 µM,"pseudolysin (PLN, LasB); read-out: vi/v0 avg, Pseudolysin, no preincubation",75.4%
same,vi/v0 Av (bar diagram figure 7),"thermolysin (TLN); Thermolysin (TLN), inhibitor 100 μM, average over 0, 15, 30 min preincubation",0.9988
same,"vi/v0 (relative enzyme activity with inhibitor), single determinations","thermolysin (TLN); Thermolysin (TLN), inhibitor 100 μM, preincubation 0 min",1.0006 and 1.038 and 0.8834 and 0.9657
same,"vi/v0 (relative enzyme activity with inhibitor), single determinations","thermolysin (TLN); Thermolysin (TLN), inhibitor 100 μM, preincubation 15 min",1.066 and 0.8371 and 1.067 and 1.122
same,"vi/v0 (relative enzyme activity with inhibitor), single determinations","thermolysin (TLN); Thermolysin (TLN), inhibitor 100 μM, preincubation 30 min",1.04 and 0.9732 and 1.001 and 0.9929
same,"vi/v0 avg (time dependent inhibition, Supplementary Figure S8)",thermolysin (TLN); 15 min pre incubation,1.023
same,"vi/v0 avg (time dependent inhibition, Supplementary Figure S8)",thermolysin (TLN); 30 min pre incubation,1.002
same,"vi/v0 avg (time dependent inhibition, Supplementary Figure S8)",thermolysin (TLN); No preincubation,0.9718
same,remaining activity at 100 µM,"aureolysin (ALN); 0.25 h, read-out: vi/v0 (single replicate), Aureolysin, 15 min pre incubation",91.1%
same,remaining activity at 100 µM,"aureolysin (ALN); 0.25 h, read-out: vi/v0 avg, Aureolysin, 15 min pre incubation",90.2%
same,remaining activity at 100 µM,"aureolysin (ALN); 0.5 h, read-out: vi/v0 (single replicate), Aureolysin, 30 min pre incubation",90.1%
same,remaining activity at 100 µM,"aureolysin (ALN); 0.5 h, read-out: vi/v0 avg, Aureolysin, 30 min pre incubation",89.4%
same,vi/v0 Av (bar diagram figure 7),"aureolysin (ALN); Aureolysin (ALN), inhibitor 100 μM, average over 0, 15, 30 min preincubation",0.8998
same,"vi/v0 (relative enzyme activity with inhibitor), single determinations","aureolysin (ALN); Aureolysin (ALN), inhibitor 100 μM, preincubation 0 min",0.9356 and 0.8634 and 0.8536 and 0.9579
same,"vi/v0 (relative enzyme activity with inhibitor), single determinations","aureolysin (ALN); Aureolysin (ALN), inhibitor 100 μM, preincubation 15 min",0.9112 and 0.976 and 0.8542 and 0.865
same,"vi/v0 (relative enzyme activity with inhibitor), single determinations","aureolysin (ALN); Aureolysin (ALN), inhibitor 100 μM, preincubation 30 min",0.898 and 0.8819
same,remaining activity at 100 µM,"aureolysin (ALN); read-out: vi/v0 (single replicate), Aureolysin, no preincubation",93.6%
same,remaining activity at 100 µM,"aureolysin (ALN); read-out: vi/v0 avg, Aureolysin, no preincubation",90.3%
